Among the data in ChEMBL document CHEMBL2016569, “Pyronepolyene C-glucosides with NF-κB inhibitory and anti-influenza A viral (H1N1) activities from the sponge-associated fungus Epicoccum sp. JJY40” (Bioorg Med Chem Lett, 2012) are IC50 and inhibition values, retold here.

pIC50: −log10 of the molar value.

Test [1] can be described thus: Inhibition of LPS-induced NFkappaB expression in mouse RAW264.7 cells pretreated for 4 hrs before LPS challenge measured after 24 hrs by luciferase reporter gene assay relative to control. It is filed as cell-based. In general terms: A reporter such as luciferase makes a cellular process visible.
A further test has as its system Influenza A virus. As to the kind of experiment: Antiviral activity against Influenza A virus (A/Puerto Rico/8/34(H1N1)) infected in MDCK cells assessed as inhibition of virus induced cytopathicity after 48 hrs. It is filed as functional, organism-based. As to conditions: A/Puerto Rico/8/1934(H1N1). A general note: Damage to the host cells serves as the signal in cytopathic effect assays.

In the next test the test system is RAW264.7. As to the kind of experiment: Inhibition of LPS-induced NFkappaB expression in mouse RAW264.7 cells at 0.1 uM pretreated for 4 hrs before LPS challenge measured after 24 hrs by luciferase reporter gene assay relative to control. Format: cell-based.

With `CCC(C)CC(C)/C=C(/C=C(C)/C=C/C=C/C=C/C=C/C=C/c1cc(O)c([C@@H]2O[C@H](CO)[C@H](O)[C@H](O)[C@H]2O)c(=O)o1)C(=O)O` (stereo partly specified), the pIC50 (as a rule, −log10 of the IC50, conventionally taken in molar units) in test [1] is 4.30; with Influenza A virus it was 3.99.

For `CCC(C)CC(C)/C=C(/C=C(C)\C=C\C=C\C=C\C=C\C=C\c1cc(O)c([C@@H]2O[C@H](CO)[C@H](O)[C@H](O)[C@H]2O)c(=O)o1)C(=O)O` (stereo partly specified), the values for the pIC50 (in test [1]; with Influenza A virus) were 4.40 and 4.04, respectively.

On to `S=C(S)N1CCCC1`, for which, in the test with RAW264.7, the inhibition (usually the relative decrease from the control value, in per cent) was found to be 85%.

On to `NC(=O)c1ncn([C@@H]2O[C@H](CO)[C@@H](O)[C@H]2O)n1` [RIBAVIRIN], for which the pIC50 in the test with Influenza A virus was 3.94.
